For one test, the target named is USP28 (Homo sapiens (Human), UniProt Q96RU2). The test can be described thus: Ubiquitin-Rhodamine 110 Assay for USP28 Activity. It is filed as biochemical. As to the method:
The assay was performed in a final volume of 20 μL in assay buffer containing 20 mM Tris-HCl (pH 8.0, (1M Tris-HCl, pH 8.0 solution; Corning 46-031-CM)), 2 mM CaCl2 (1M Calcium Chloride solution; Sigma #21114) 2 mM BME (2-Mercaptoethanol; Sigma 63689-25ML -F), 0.01% Prionex (0.22 μM filtered, Sigma #G-0411), and 0.01% Triton X-100. Stock compound solutions were stored at −20° C. as 10 mM in DMSO. Up to 1 month prior to the assay, 2 mM test compounds were pre-dispensed into assay plates (Black, low volume; Corning #3820) and frozen at −20° C. Prestamped assay plates were allowed to come to room temperature on the day of the assay. For the screen, 100 nL of 2 mM was pre-dispensed for a final screening concentration of 10 μM (DMSO(fc)=0.5%). […] Plates were incubated stacked for 90 minutes at room temperature before fluorescence was read on the Envision (Excitation at 485 nm and Emission at 535 nm; Perkin Elmer) or on the PheraSTAR (Excitation at 485 nm and Emission at 535 nm; BMG Labtech).
For follow-up studies, the assay was performed in a final volume of 15 μL in assay buffer containing 20 mM Tris-HCl (pH 8.0, (1M Tris-HCl, pH 8.0 solution; Corning 46-031-CM)), 3 mM BME (2-Mercaptoethanol; Sigma 63689-25ML-F), 0.03% BGG (0.22 μM filtered, Sigma, G7516-25G), and 0.01% Triton X-100 (Sigma, T9284-10L). Nanoliter quantities of either an 8-point or 10-point, 3-fold serial dilution in DMSO was pre-dispensed into assay plates (Perkin Elmer, ProxiPlate-384 F Plus) for a final test concentration of either 25 μM to 11 nM or 25 μM to 1.3 nM, respectively. Enzyme USP28, construct USP28 (USP28-5(1-1077)-TEV-6*His; LifeSensors) concentration and incubation times were optimized for the maximal signal-to -background while maintaining initial velocity conditions at a fixed substrate concentration. The final concentration of the enzyme in the assay was 75 pM. […] 5 μL of 2× enzyme was added to assay plates (pre-stamped with compound) preincubated with USP28 for 30 minutes and then 5 μL of 2× Ub-Rh110 was added to assay plates. Plates were incubated stacked for 20 min at room temperature before 5 μL of stop solution was added (final concentration of 10 mM citric acid (Sigma, 251275-500G)). Fluorescence was read on the Envision (Excitation at 485 nm and Emission at 535 nm; Perkin Elmer) or on the PheraSTAR (Excitation at 485 nm and Emission at 535 nm; BMG Labtech).
(§1) For both the USP28 and USP25 assay formats, data were reported as percent inhibition compared with control wells based on the following equation: % inh=1-((FLU-AveLow)/(AveHigh−AveLow)) where FLU=measured Fluorescence, AveLow=average Fluorescence of no enzyme control (n=16), and AveHigh=average Fluorescence of DMSO control (n=16). IC50 values were determined by curve fitting of the standard 4 parameter logistic fitting algorithm included in the Activity Base software package: IDBS XE Designer Model205. Data is fitted using the Levenburg Marquardt algorithm.

A further test has as its target USP25 (Homo sapiens (Human), UniProt Q9UHP3). The test can be described thus: Ubiquitin-Rhodamine 110 Assay for USP25 Activity. Format: biochemical. As to the method:
The assay was performed in a final volume of 9 μL in assay buffer containing 20 mM Tris-HCl (pH 8.0, (1M Tris-HC1, pH 8.0 solution; Corning 46-031-CM)), 3 mM BME (2-Mercaptoethanol; Sigma 63689-25ML-F), 0.03% BGG (0.22 μM filtered, Sigma, G7516-25G), and 0.01% Triton X-100 (Sigma, T9284-10L). Nanoliter quantities of 10-point, 3-fold serial dilution in DMSO was pre-dispensed into 1536 assay plates (Corning, #3724BC) for a final test concentration of 25 μM to 1.3 nM, top to lowest dose, respectively. Enzyme USP25, construct USP25-His6, (Boston Biochem E-546). Concentration and incubation times were optimized for the maximal signal-to-background while maintaining initial velocity conditions at a fixed substrate concentration. The final concentration of the enzyme in the assay was 75 pM. […] 3 μL of 2× enzyme was added to assay plates (pre-stamped with compound) preincubated with […] for 30 minutes and then 3 μL of 2× Ub-Rh110 was added to assay plates. Plates were incubated for 45 minutes at room temperature before addition of 3 μL of stop solution (final concentration of 10 mM citric acid (Sigma, 251275-500G)). Fluorescence was read on the Envision (Excitation at 485 nm and Emission at 535 nm; Perkin Elmer) or on the PheraSTAR (Excitation at 485 nm and Emission at 535 nm; BMG Labtech).
as §1

Bounds are passed on as bounds.

Usually IC50 stands for the concentration that gives 50% inhibition.

Chain of USP28 (Q96RU2 whole entry): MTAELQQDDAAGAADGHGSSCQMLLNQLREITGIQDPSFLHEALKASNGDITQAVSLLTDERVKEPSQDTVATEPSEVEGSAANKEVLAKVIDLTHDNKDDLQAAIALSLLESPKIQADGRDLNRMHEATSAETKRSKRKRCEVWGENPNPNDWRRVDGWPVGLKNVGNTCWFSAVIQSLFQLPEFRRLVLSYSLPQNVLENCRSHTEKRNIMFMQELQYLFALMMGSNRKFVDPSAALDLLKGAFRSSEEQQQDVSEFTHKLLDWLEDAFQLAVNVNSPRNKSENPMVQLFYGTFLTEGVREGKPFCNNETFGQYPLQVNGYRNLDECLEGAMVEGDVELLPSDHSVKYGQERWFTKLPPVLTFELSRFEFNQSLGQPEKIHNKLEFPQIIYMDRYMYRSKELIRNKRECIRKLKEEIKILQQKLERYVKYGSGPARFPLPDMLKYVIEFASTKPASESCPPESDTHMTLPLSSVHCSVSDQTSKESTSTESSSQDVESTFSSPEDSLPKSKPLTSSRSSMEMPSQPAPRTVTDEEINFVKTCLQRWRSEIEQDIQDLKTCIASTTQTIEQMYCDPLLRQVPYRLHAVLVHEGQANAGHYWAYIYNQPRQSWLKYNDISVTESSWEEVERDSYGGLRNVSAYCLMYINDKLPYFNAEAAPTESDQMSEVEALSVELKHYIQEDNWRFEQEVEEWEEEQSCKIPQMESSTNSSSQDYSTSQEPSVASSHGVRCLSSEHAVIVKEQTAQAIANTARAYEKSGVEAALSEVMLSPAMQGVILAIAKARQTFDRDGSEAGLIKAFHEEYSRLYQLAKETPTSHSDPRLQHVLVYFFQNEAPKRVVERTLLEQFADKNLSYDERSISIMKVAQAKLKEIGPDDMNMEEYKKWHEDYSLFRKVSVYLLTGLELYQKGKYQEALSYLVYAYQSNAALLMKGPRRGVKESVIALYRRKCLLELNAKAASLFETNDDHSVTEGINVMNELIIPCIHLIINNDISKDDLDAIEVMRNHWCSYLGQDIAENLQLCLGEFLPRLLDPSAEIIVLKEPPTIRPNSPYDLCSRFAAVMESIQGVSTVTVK
Chain of USP25 (Q9UHP3 whole entry): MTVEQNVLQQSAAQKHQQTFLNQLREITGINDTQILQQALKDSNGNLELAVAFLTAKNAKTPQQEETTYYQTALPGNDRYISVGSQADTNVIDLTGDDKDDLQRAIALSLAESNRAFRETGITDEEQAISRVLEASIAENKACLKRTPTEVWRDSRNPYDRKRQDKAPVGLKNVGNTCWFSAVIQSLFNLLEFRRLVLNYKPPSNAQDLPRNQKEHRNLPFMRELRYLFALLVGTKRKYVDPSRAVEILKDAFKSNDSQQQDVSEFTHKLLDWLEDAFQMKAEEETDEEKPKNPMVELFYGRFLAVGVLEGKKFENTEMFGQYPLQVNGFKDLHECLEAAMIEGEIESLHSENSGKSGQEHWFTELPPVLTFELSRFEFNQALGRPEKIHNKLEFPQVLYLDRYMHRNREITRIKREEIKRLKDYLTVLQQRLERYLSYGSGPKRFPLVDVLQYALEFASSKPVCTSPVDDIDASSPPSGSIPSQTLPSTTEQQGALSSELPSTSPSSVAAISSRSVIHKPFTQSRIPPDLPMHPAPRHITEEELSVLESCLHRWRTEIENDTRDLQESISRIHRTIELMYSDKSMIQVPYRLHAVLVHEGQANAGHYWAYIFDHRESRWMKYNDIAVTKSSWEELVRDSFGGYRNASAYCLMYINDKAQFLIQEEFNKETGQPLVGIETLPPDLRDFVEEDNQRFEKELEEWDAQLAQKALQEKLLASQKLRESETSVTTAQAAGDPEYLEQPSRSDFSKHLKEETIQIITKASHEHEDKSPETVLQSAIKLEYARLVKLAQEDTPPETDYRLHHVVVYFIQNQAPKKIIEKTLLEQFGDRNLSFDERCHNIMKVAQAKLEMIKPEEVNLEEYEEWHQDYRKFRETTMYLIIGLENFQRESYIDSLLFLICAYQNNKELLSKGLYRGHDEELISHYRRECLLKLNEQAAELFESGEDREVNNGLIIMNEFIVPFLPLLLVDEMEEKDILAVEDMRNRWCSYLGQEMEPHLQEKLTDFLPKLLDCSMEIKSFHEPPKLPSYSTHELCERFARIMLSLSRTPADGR

Regarding `CN1CCN(c2ccc(CCNC(=O)c3sc4nc(Cl)ccc4c3N)cc2)CC1` [Compound I-59], the IC50 at USP28 and against USP25 was 200 to 2000 nM each time.
For the compound `Cc1nc2sc(C(=O)NC[C@@H](C)c3cc(F)c(N4CCNCC4)cc3F)c(N)c2cc1F` [Example I-99], the IC50 against USP28 and at USP25 was 2000 to 10000 nM each time.
On to `Cc1ccc2c(N)c(C(=O)NC[C@@H](C)c3ccc(N4CC5CCC(C4)N5)c(F)c3)sc2n1` (single isomer, unassigned) [Example I-105], for which the IC50 on USP28 and at USP25 was 200 to 2000 nM each time.
Turning to `Cc1ccc2c(N)c(C(=O)NCCc3ccc(N4CCNCC4)cc3C3CC3)sc2n1` [Example I-81], the IC50 against USP28 and against USP25 was less than 200 nM throughout.
On to `CN1CCC(c2ccc(CCNC(=O)c3sc4nc(Cl)ccc4c3N)cc2)CC1` [Compound I-58], for which the half-maximal inhibitory concentration (IC50) was less than 200 nM on USP28 and 200 to 2000 nM against USP25.
For the compound `Nc1c(C(=O)NCCc2cc(F)c(N3CC4CCC(C3)N4)cc2F)sc2ncc(F)cc12` [Compound I-69], the IC50 is less than 200 nM against USP28 and 200 to 2000 nM on USP25.
For `Cc1ccc2c(N)c(C(=O)NC[C@@H](C)c3ccc(N4CC5CCC(C4)N5)cc3F)sc2n1` (single isomer, unassigned) [Example I-103], the IC50 at USP28 and against USP25 was 200 to 2000 nM in each case.
Regarding `Cc1ccc2c(N)c(C(=O)NCCc3ccc(N4CC5CCC(C4)N5)c(F)c3)sc2n1` [Example I-88], the IC50 on USP28 was less than 200 nM; against USP25 it was 200 to 2000 nM.
For `Cc1ccc2c(N)c(C(=O)NCCc3ccc(N4CC5CCC(C4)N5)c(C#N)c3)sc2n1` [Compound I-54], in that order: less than 200 nM and 200 to 2000 nM.
For `Cc1cc(C(F)(F)F)c2c(N)c(C(=O)NCCc3ccc(N4CCNCC4)cc3)sc2n1` [Compound I-204], in that order: 200 to 2000 nM and less than 200 nM.
The matching figures for `CN[C@@H]1CN(c2cc(F)c(CCNC(=O)c3sc4nc(C)ccc4c3N)cc2F)C[C@@H]1F` (single isomer, unassigned) [Example I-211]: 200 to 2000 nM and 2000 to 10000 nM.
Take `Cc1cc(Cl)nc2sc(C(=O)NCCc3ccc(N4CCNCC4)cc3)c(N)c12` [Compound I-56]: the IC50 on USP28 and against USP25 was 200 to 2000 nM in each case.
As to `Cc1ccc2c(N)c(C(=O)NC[C@@H](C)c3cc(F)c(N4CC5CCC(C4)N5)cc3F)sc2n1` (single isomer, unassigned) [Example I-97], the IC50 was 200 to 2000 nM against USP28 and 2000 to 10000 nM against USP25.
For `Cc1ccc2c(N)c(C(=O)NCCc3cc(F)c(N4C[C@@H]5C[C@H]4CN5)cc3F)sc2n1` [Compound I-52], in that order: less than 200 nM and 200 to 2000 nM.
Consider `Cc1ccc2c(N)c(C(=O)NCCc3ccc(N4CCn5ccnc5C4)cc3)sc2n1` [Example I-116, 3-Amino-N-(4-(5,6-dihydroimidazo[1,2-a]pyrazin-7(8H)-yl)phenethyl)-6-methylthieno[2,3-b]pyridine-2-carboxamide], for which the IC50 against USP28 and against USP25 was 200 to 2000 nM throughout.
In the case of `Cc1ccc2c(N)c(C(=O)NC[C@H](C)c3ccc(N4CC5CCC(C4)N5)c(C#N)c3)sc2n1` (single isomer, unassigned) [Example I-110], the IC50 at USP28 was in the range of 200 to 2000 nM; against USP25, 2000 to 10000 nM.
The matching figures for `N#Cc1ccc2c(N)c(C(=O)NCCc3cc(F)c(N4CCNCC4)cc3F)sc2n1` [Example I-220, 3-Amino-6-cyano-N-(2,5-difluoro-4-(piperazin-1-yl)phenethyl)thieno[2,3-b]pyridine-2-carboxamide]: 2000 to 10000 nM and 2000 to 10000 nM.
On to `Cc1ccc2c(N)c(C(=O)NCCc3ccc(N4CC[C@@H]5NCC[C@@H]54)cc3)sc2n1` (single isomer, unassigned) [Example I-93], for which the half-inhibitory concentration (IC50) against USP28 and on USP25 was less than 200 nM each time.
As to `CCc1cc(CCNC(=O)c2sc3nc(C)ccc3c2N)ccc1N1CCNCC1` [Example I-78], the values for the IC50 on USP28 and against USP25 were less than 200 nM and 200 to 2000 nM, respectively.
For `Cc1ccc2c(N)c(C(=O)NCCc3ccc(N4CC5CCC(C4)N5)cc3F)sc2n1` [Compound I-22], in that order: less than 200 nM and 200 to 2000 nM.
For `Cc1ccc2c(N)c(C(=O)NCCc3cc(F)c(N4C[C@H]5C[C@@H]4CN5)cc3F)sc2n1` [Compound I-53], in that order: less than 200 nM and less than 200 nM.
For `Cc1nc2sc(C(=O)NCCc3ccc(N4CCNCC4)cc3)c(N)c2cc1C1CC1` [Example I-197, 3-Amino-5-cyclopropyl-6-methyl-N-(4-(piperazin-1-yl)phenethyl)thieno[2,3-b]pyridine-2-carboxamide], in that order: 2000 to 10000 nM and 10000 to 25000 nM.
Consider `Nc1c(C(=O)NCCc2ccc(N3CCNCC3)cc2)sc2ncc3c(c12)CCC3` [Compound I-28], for which the 50% inhibitory concentration (IC50) against USP28 and against USP25 was 2000 to 10000 nM in each case.
`Cc1ccc2c(N)c(C(=O)NCCc3ccc(C4CCNCC4)cc3F)sc2n1` [Compound I-170]: the IC50 at USP28 was less than 200 nM; at USP25, 200 to 2000 nM.
With `CN[C@@H]1CN(c2cc(F)c(CCNC(=O)c3sc4nc(C)ccc4c3N)cc2F)C[C@H]1F` (single isomer, unassigned) [Example I-213], the IC50 at USP28 and on USP25 was 200 to 2000 nM in each case.
As for `Cc1ccc2c(N)c(C(=O)NCCc3ccc(N4CCNCC4)c(-c4cnn(C(F)F)c4)c3)sc2n1` [Example I-152, 3-Amino-N-(3-(1-(difluoromethyl)-1H-pyrazol-4-yl)-4-(piperazin-1-yl)phenethyl)-6-methylthieno[2,3-b]pyridine-2-carboxamide], the IC50 fell in the range of 2000 to 10000 nM at USP28 and 10000 to 25000 nM on USP25.
Turning to `Nc1c(C(=O)NCCc2ccc(N3CCNCC3)cc2)sc2nc(OC(F)F)ccc12` [Example I-193, 3-Amino-6-(difluoromethoxy)-N-(4-(piperazin-1-yl)phenethyl)thieno[2,3-b]pyridine-2-carboxamide], the figures for the IC50 against USP28 and against USP25 were less than 200 nM and 200 to 2000 nM, respectively.
The matching figures for `C[C@@H](CNC(=O)c1sc2ncc(F)cc2c1N)c1cc(F)c(N2CC3CCC(C2)N3)cc1F` (single isomer, unassigned) [Example I-102]: 2000 to 10000 nM and 2000 to 10000 nM.
Consider `Cc1cc2c(N)c(C(=O)NCCc3ccc(N4CCNCC4)c(Cl)c3)sc2nc1C` [Compound I-31], for which the IC50 at USP28 and at USP25 was 2000 to 10000 nM throughout.
For `CCNc1ccc2c(N)c(C(=O)NCCc3ccc(N4CCNCC4)cc3)sc2n1` [Example I-188], the values for the 50% inhibitory concentration (IC50) against USP28 and against USP25 were less than 200 nM and 200 to 2000 nM, respectively.
The matching figures for `Nc1c(C(=O)NCCc2ccc(N3CCNCC3)c(Cl)c2)sc2ncc(Cl)cc12` [Compound I-40]: 200 to 2000 nM and 2000 to 10000 nM.
For `Cc1ccc2c(N)c(C(=O)NCCc3ccc(C4CCNCC4)cc3)sc2n1` [Compound I-13], in that order: less than 200 nM and 200 to 2000 nM.
